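GI50: concentration for 50% inhibition of growth. TGI denotes the concentration required for complete inhibition of growth.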
Assays:
Assay in all cases: NCI tumour cell line growth inhibition, 384-well format
HL-60(TB) leukemia = test system: HL-60(TB) leukemia
SNB-75 CNS = test system: SNB-75 CNS
UO-31 renal = test system: UO-31 renal
NCI-H322M lung = test system: NCI-H322M lung
MOLT-4 leukemia = test system: MOLT-4 leukemia
CCRF-CEM leukemia = test system: CCRF-CEM leukemia
SF-268 CNS = test system: SF-268 CNS
SK-OV-3 ovarian = test system: SK-OV-3 ovarian
SK-MEL-5 melanoma = test system: SK-MEL-5 melanoma
HT29 colon = test system: HT29 colon
MDA-MB-231 breast = test system: MDA-MB-231 breast
CAKI-1 renal = test system: CAKI-1 renal
ACHN renal = test system: ACHN renal
OVCAR-5 ovarian = test system: OVCAR-5 ovarian
COLO 205 colon = test system: COLO 205 colon
NCI-H226 lung = test system: NCI-H226 lung
M14 melanoma = test system: M14 melanoma
T-47D breast = test system: T-47D breast
KM12 colon = test system: KM12 colon
786-0 renal = test system: 786-0 renal
A549 NSCLC = test system: A549 NSCLC
HOP-62 NSCLC = test system: HOP-62 NSCLC
MALME-3M melanoma = test system: MALME-3M melanoma
A498 renal = test system: A498 renal
RPMI-8226 leukemia = test system: RPMI-8226 leukemia
OVCAR-4 ovarian = test system: OVCAR-4 ovarian
NCI-H522 lung = test system: NCI-H522 lung
BT-549 breast = test system: BT-549 breast
HCC-2998 colon = test system: HCC-2998 colon
U251 glioblastoma = test system: U251 glioblastoma
SW-620 colon = test system: SW-620 colon
SNB-19 CNS = test system: SNB-19 CNS
HCT-116 colon = test system: HCT-116 colon
LOX IMVI melanoma = test system: LOX IMVI melanoma
OVCAR-3 ovarian = test system: OVCAR-3 ovarian
RXF 393 renal = test system: RXF 393 renal
DU-145 prostate = test system: DU-145 prostate
TK-10 renal = test system: TK-10 renal
MDA-MB-468 breast = test system: MDA-MB-468 breast
PC-3 prostate = test system: PC-3 prostate
OVCAR-8 ovarian = test system: OVCAR-8 ovarian
EKVX NSCLC = test system: EKVX NSCLC
HS 578T breast = test system: HS 578T breast
SF-295 CNS = test system: SF-295 CNS
HOP-92 NSCLC = test system: HOP-92 NSCLC
K-562 leukemia = test system: K-562 leukemia
NCI-H460 NSCLC = test system: NCI-H460 NSCLC
NCI/ADR-RES ovarian = test system: NCI/ADR-RES ovarian
MCF7 breast = test system: MCF7 breast
IGROV1 ovarian = test system: IGROV1 ovarian
HCT-15 colon = test system: HCT-15 colon
SK-MEL-28 melanoma = test system: SK-MEL-28 melanoma
NCI-H23 lung = test system: NCI-H23 lung
SF-539 CNS = test system: SF-539 CNS
UACC-257 melanoma = test system: UACC-257 melanoma
SN12C renal = test system: SN12C renal
SR leukemia = test system: SR leukemia
MDA-MB-435 melanoma = test system: MDA-MB-435 melanoma

Cc1ccc(NC(=O)c2cccc(N(C)C)c2)cc1NC(=O)c1ccc(O)cc1
GI50 (HL-60(TB) leukemia): 12.5 µM | TGI (HL-60(TB) leukemia): 25.2 µM | GI50 (SNB-75 CNS): 54.4 µM | TGI (SNB-75 CNS): > 100 µM | GI50 (UO-31 renal): 30.4 µM | TGI (UO-31 renal): > 100 µM | GI50 (NCI-H322M lung): 56.7 µM | TGI (NCI-H322M lung): > 100 µM | GI50 (MOLT-4 leukemia): 16.8 µM | TGI (MOLT-4 leukemia): 34.4 µM | GI50 (CCRF-CEM leukemia): 22.5 µM | TGI (CCRF-CEM leukemia): 70.7 µM | GI50 (SF-268 CNS): 48.4 µM | TGI (SF-268 CNS): > 100 µM | GI50 (SK-OV-3 ovarian): 43.2 µM | TGI (SK-OV-3 ovarian): > 100 µM | GI50 (SK-MEL-5 melanoma): 14.9 µM | TGI (SK-MEL-5 melanoma): 52.5 µM | GI50 (HT29 colon): 28.9 µM | TGI (HT29 colon): > 100 µM | GI50 (MDA-MB-231 breast): 32.9 µM | TGI (MDA-MB-231 breast): > 100 µM | GI50 (CAKI-1 renal): 54.6 µM | TGI (CAKI-1 renal): > 100 µM | GI50 (ACHN renal): 40.2 µM | TGI (ACHN renal): > 100 µM | GI50 (OVCAR-5 ovarian): 69.8 µM | TGI (OVCAR-5 ovarian): > 100 µM | GI50 (COLO 205 colon): 18.8 µM | TGI (COLO 205 colon): 87.2 µM | GI50 (NCI-H226 lung): 39.6 µM | TGI (NCI-H226 lung): > 100 µM | GI50 (M14 melanoma): 30.5 µM | TGI (M14 melanoma): > 100 µM | GI50 (T-47D breast): 15.1 µM | TGI (T-47D breast): 33.6 µM | GI50 (KM12 colon): 30.6 µM | TGI (KM12 colon): > 100 µM | GI50 ([…]-0 renal): 33.5 µM | TGI (786-0 renal): > 100 µM | GI50 (A549 NSCLC): 41.5 µM | TGI (A549 NSCLC): > 100 µM | GI50 (HOP-62 NSCLC): 43.6 µM | TGI (HOP-62 NSCLC): > 100 µM | GI50 (MALME-3M melanoma): 23.5 µM | TGI (MALME-3M melanoma): 71.5 µM | GI50 (A498 renal): 48.2 µM | TGI (A498 renal): > 100 µM | GI50 (RPMI-8226 leukemia): 12.7 µM | TGI (RPMI-8226 leukemia): 34.1 µM | GI50 (OVCAR-4 ovarian): 33.8 µM | TGI (OVCAR-4 ovarian): > 100 µM | GI50 (NCI-H522 lung): 29.4 µM | TGI (NCI-H522 lung): > 100 µM | GI50 (BT-549 breast): 75.2 µM | TGI (BT-549 breast): > 100 µM | GI50 (HCC-2998 colon): 16.9 µM | TGI (HCC-2998 colon): 36.9 µM | GI50 (U251 glioblastoma): 63.5 µM | TGI (U251 glioblastoma): > 100 µM | GI50 (SW-620 colon): 59.2 µM | TGI (SW-620 colon): > 100 µM | GI50 (SNB-19 CNS): 89.8 µM | TGI (SNB-19 CNS): > 100 µM | GI50 (HCT-116 colon): 29.6 µM | TGI (HCT-116 colon): > 100 µM | GI50 (LOX IMVI melanoma): 38.5 µM | TGI (LOX IMVI melanoma): > 100 µM | GI50 (OVCAR-3 ovarian): 36.9 µM | TGI (OVCAR-3 ovarian): > 100 µM | GI50 (RXF 393 renal): 16.6 µM | TGI (RXF 393 renal): 33.2 µM | GI50 (DU-145 prostate): 47.5 µM | TGI (DU-145 prostate): > 100 µM | GI50 (TK-10 renal): 26.8 µM | TGI (TK-10 renal): 91.2 µM | GI50 (MDA-MB-468 breast): 18.1 µM | TGI (MDA-MB-468 breast): 50.5 µM | GI50 (PC-3 prostate): 41.6 µM | TGI (PC-3 prostate): > 100 µM | GI50 (OVCAR-8 ovarian): 37.3 µM | TGI (OVCAR-8 ovarian): > 100 µM | GI50 (EKVX NSCLC): 45.3 µM | TGI (EKVX NSCLC): > 100 µM | GI50 (HS 578T breast): 41.9 µM | TGI (HS 578T breast): > 100 µM | GI50 (SF-295 CNS): 25.9 µM | TGI (SF-295 CNS): 81.4 µM | GI50 (HOP-92 NSCLC): 38.9 µM | TGI (HOP-92 NSCLC): > 100 µM | GI50 (K-562 leukemia): 12 µM | TGI (K-562 leukemia): 25.2 µM | GI50 (NCI-H460 NSCLC): 30.6 µM | TGI (NCI-H460 NSCLC): > 100 µM | GI50 (NCI/ADR-RES ovarian): 38.9 µM | TGI (NCI/ADR-RES ovarian): > 100 µM | GI50 (MCF7 breast): 30.3 µM | TGI (MCF7 breast): > 100 µM | GI50 (IGROV1 ovarian): 50.1 µM | TGI (IGROV1 ovarian): > 100 µM | GI50 (HCT-15 colon): 30.4 µM | TGI (HCT-15 colon): > 100 µM | GI50 (SK-MEL-28 melanoma): 26.3 µM | TGI (SK-MEL-28 melanoma): 74.1 µM | GI50 (NCI-H23 lung): 29.3 µM | TGI (NCI-H23 lung): > 100 µM | GI50 (SF-539 CNS): 42.8 µM | TGI (SF-539 CNS): > 100 µM | GI50 (UACC-257 melanoma): 25.1 µM | TGI (UACC-257 melanoma): 69.1 µM | GI50 (SN12C renal): 57 µM | TGI (SN12C renal): > 100 µM | GI50 (SR leukemia): 15 µM | TGI (SR leukemia): 33.5 µM | GI50 (MDA-MB-435 melanoma): 34.1 µM | TGI (MDA-MB-435 melanoma): > 100 µM
